Measured values: US20080318943A1, “Compounds and Uses Thereof - 848” (ASTRAZENECA AB, priority 2007, published 2008)

Assays:
[1] = target: T1, GABAA2 receptors (α2, β3, γ2 receptor subunits transfected into Sf9 cells) (Homo sapiens, UniProt P18507+P47869); experiment: GABAA2 Binding Method ([3H]-Flunitrazepam displacement); details: [3H]-Flunitrazepam ~2 nM, α2β3γ2 Sf9 membranes, 1 hr at 4° C.
T1 construct: host or cells: Sf9 cells (membranes)
Outline: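 Membranes from Sf9 cells expressing α2β3γ2 GABAA receptors incubated with ~2 nM (final) [3H]-flunitrazepam and test compound 1 h at 4 °C, then filtered on GF/B plates with cold-buffer washes. Flumazenil-defined controls; percent of control, IC50 and Ki calculated.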

GABAA receptor α1β2γ2 = target: T2, GABAA receptor α1β2γ2 (Homo sapiens, UniProt P14867+P18507); experiment: Two-electrode voltage-clamp potentiation of GABA EC10 current in Xenopus oocytes, GABAA1; assay type: cell-based; details: percentage potentiation of GABA EC10 current divided by that of diazepam
T2 construct: expressed in transfected cells; host or cells: Xenopus laevis oocytes injected with cRNA
T2 sequence (P14867 28-456): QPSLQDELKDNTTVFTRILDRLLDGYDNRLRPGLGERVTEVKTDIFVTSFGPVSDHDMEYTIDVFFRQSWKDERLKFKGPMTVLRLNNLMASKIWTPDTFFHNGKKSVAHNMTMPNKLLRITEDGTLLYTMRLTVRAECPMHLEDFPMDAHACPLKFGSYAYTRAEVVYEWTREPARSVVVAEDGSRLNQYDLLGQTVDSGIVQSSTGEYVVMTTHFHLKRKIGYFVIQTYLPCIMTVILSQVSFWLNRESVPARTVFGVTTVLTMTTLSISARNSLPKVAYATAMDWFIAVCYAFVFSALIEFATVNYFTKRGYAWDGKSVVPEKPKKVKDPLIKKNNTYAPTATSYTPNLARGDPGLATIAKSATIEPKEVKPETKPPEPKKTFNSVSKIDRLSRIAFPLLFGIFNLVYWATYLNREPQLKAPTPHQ
T2 sequence (P47870 25-512 partner limits assumed): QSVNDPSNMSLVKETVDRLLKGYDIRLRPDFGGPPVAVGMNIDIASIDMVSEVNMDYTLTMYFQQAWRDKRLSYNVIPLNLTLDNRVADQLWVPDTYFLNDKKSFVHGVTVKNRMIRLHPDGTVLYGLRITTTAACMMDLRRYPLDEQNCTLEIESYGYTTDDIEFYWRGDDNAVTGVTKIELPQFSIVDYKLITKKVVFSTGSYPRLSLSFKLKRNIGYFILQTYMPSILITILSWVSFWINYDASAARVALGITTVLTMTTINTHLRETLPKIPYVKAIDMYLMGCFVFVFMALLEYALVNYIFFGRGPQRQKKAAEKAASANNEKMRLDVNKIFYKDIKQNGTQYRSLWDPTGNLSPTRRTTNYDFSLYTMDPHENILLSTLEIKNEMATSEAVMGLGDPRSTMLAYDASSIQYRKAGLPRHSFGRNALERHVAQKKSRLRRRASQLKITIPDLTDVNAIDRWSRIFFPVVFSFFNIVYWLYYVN
T2 sequence (P18507 40-475): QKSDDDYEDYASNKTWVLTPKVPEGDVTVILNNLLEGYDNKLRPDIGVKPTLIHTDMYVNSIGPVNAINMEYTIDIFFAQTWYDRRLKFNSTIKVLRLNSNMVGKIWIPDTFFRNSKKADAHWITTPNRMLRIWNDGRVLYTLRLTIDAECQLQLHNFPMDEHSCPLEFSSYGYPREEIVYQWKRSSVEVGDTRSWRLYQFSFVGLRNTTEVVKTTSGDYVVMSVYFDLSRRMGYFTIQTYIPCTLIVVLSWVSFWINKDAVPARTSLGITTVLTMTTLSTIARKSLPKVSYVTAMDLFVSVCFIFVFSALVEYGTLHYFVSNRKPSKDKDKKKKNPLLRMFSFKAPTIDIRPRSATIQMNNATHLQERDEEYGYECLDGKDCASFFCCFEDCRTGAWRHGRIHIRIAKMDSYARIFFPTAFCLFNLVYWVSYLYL
Outline: (§1)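 Human GABAA receptors expressed in Xenopus oocytes by cRNA injection (α:β:γ molar ratio ~1:1:10 for α1β2γ2, 1:1:1 for α2β3γ2), recorded 2-10 days later by two-electrode voltage clamp at −60 mV in ND-96, pH 7.5. Modulator preapplied 30 s before GABA at per-oocyte EC10. Peak-current percent potentiation over GABA alone, normalised to diazepam.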

GABAA receptor α2β3γ2 = target: T3, GABAA receptor α2β3γ2 (Homo sapiens, UniProt P18507+P47869); experiment: Two-electrode voltage-clamp potentiation of GABA EC10 current in Xenopus oocytes, GABAA2; assay type: cell-based; details: percentage potentiation of GABA EC10 current divided by that of diazepam
T3 construct: expressed in transfected cells; host or cells: Xenopus laevis oocytes injected with cRNA
T3 sequence (P47869 29-451): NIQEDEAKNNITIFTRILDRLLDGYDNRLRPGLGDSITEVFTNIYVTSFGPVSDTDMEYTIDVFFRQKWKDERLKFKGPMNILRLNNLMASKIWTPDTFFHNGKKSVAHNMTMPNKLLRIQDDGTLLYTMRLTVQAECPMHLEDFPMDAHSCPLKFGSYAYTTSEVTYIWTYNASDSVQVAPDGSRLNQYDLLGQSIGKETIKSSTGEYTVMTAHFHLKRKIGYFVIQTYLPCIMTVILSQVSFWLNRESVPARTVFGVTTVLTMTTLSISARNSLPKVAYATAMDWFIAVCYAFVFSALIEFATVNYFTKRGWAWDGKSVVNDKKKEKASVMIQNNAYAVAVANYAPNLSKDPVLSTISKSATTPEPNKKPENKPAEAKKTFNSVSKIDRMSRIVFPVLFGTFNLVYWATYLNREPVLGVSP
T3 sequence (P28472 26-473 partner): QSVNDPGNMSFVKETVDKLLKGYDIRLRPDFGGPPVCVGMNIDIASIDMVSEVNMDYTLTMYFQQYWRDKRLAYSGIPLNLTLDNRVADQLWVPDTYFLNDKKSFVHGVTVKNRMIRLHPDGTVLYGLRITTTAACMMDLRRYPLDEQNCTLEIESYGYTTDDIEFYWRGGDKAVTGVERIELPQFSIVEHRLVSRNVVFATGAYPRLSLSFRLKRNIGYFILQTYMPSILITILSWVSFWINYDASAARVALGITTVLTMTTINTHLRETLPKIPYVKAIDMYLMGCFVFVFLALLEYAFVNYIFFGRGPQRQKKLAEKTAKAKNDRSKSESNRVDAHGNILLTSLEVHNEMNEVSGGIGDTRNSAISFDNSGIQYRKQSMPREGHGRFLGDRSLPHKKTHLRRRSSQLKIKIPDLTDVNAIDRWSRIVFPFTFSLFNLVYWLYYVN
T3 sequence (P18507 40-475): as the sequence (P18507 40-475) above
Outline: as §1

[2] = listed as 9-amino-2-cyclobutyl-5-(2-fluoro-6-methoxyphenyl)-2,3-dihydro-1H-pyrrolo[3,4-b]q

T1 sequence (P47869 29-451): as the sequence (P47869 29-451) above
T1 sequence (P28472 26-473 partner): as the sequence (P28472 26-473 partner) above
T1 sequence (P18507 40-475): as the sequence (P18507 40-475) above

Ki [1] | Relative Potentiation for GABAA1 (GABAA receptor α1β2γ2) | Relative Potentiation for GABAA2 (GABAA receptor α2β3γ2) | Relative Potentiation for GABAA1 (GABAA receptor α1β2γ2; [2]) | Relative Potentiation for GABAA2 (GABAA receptor α2β3γ2; [2]) | Compound
0.0098 µM | −0.034 | 0.2 | – | – | COc1ccc(CN2Cc3nc4c(-c5c(F)cccc5OC)cccc4c(N)c3C2=O)cc1 [Example 1, 9-Amino-5-(2-fluoro-6-methoxyphenyl)-2-(4-methoxybenzyl)-2,3-dihydropyrrolo[3,4-b]quinolin-1-one]
0.0443 µM | 0.12 | 0.13 | – | – | COc1ccc(CN2Cc3nc4c(-c5cc(F)ccc5F)cccc4c(N)c3C2=O)cc1 [Example 2]
0.022 µM | 0.12 | 0.68 | – | – | COc1ccc(CN2Cc3nc4c(-c5cccnc5OC)cccc4c(N)c3C2=O)cc1 [Example 3, 9-Amino-2-(4-methoxybenzyl)-5-(2-methoxypyridin-3-yl)-2,3-dihydropyrrolo[3,4-b]quinolin-1-one]
0.0312 µM | 0.013 | 0.18 | – | – | COc1ccc(OC)c(CN2Cc3nc4c(-c5cccnc5OC)cccc4c(N)c3C2=O)c1 [Example 4, 9-Amino-2-(2,5-dimethoxybenzyl)-5-(2-methoxypyridin-3-yl)-2,3-dihydropyrrolo[3,4-b]quinolin-1-one]
0.00503 µM | 0.11 | 0.3 | – | – | CCCN1Cc2nc3c(-c4c(F)cccc4OC)cccc3c(N)c2C1=O [Example 5, 9-Amino-5-(2-fluoro-6-methoxyphenyl)-2-propyl-2,3-dihydropyrrolo[3,4-b]quinolin-1-one]
0.0173 µM | 0.13 | 0.22 | – | – | CCCN1Cc2nc3c(-c4cccc(C)c4C)cccc3c(N)c2C1=O [Example 6, 9-Amino-5-(2,3-dimethylphenyl)-2-propyl-2,3-dihydropyrrolo[3,4-b]quinolin-1-one]
0.0943 µM | 0.16 | 0.27 | – | – | CCCN1Cc2nc3c(-c4cc(C)cc(C)c4)cccc3c(N)c2C1=O [Example 7, 9-Amino-5-(3,5-dimethylphenyl)-2-propyl-2,3-dihydropyrrolo[3,4-b]quinolin-1-one]
0.0459 µM | 0.013 | 0.07 | – | – | COc1ccc(CN2Cc3nc4c(-c5ccc(Cl)nc5)cccc4c(N)c3C2=O)cc1OC [Example 8, 9-Amino-5-(6-chloropyridin-3-yl)-2-(3,4-dimethoxybenzyl)-2,3-dihydropyrrolo[3,4-b]quinolin-1-one]
0.0281 µM | 0.068 | 0.31 | – | – | CCCN1Cc2nc3c(-c4ccc(OC)nc4OC)cccc3c(N)c2C1=O [Example 9, 9-Amino-5-(2,6-dimethoxypyridin-3-yl)-2-propyl-2,3-dihydropyrrolo[3,4-b]quinolin-1-one]
0.0922 µM | 0.092 | 0.19 | – | – | CCCN1Cc2nc3c(-c4ccc(C)nc4)cccc3c(N)c2C1=O [Example 10, 9-Amino-5-(6-methylpyridin-3-yl)-2-propyl-2,3-dihydropyrrolo[3,4-b]quinolin-1-one]
0.011 µM | 0.15 | 0.19 | – | – | COc1ccc(OC)c(-c2cccc3c(N)c4c(nc23)CN(Cc2ccc(OC)c(OC)c2)C4=O)c1 [Example 11, 9-Amino-2-(3,4-dimethoxybenzyl)-5-(2,5-dimethoxyphenyl)-2,3-dihydropyrrolo[3,4-b]quinolin-1-one]
0.0506 µM | 0.17 | 0.23 | – | – | CCCN1Cc2nc3c(-c4cnc(OC)cc4C)cccc3c(N)c2C1=O [Example 12, 9-Amino-5-(6-methoxy-4-methylpyridin-3-yl)-2-propyl-2,3-dihydropyrrolo[3,4-b]quinolin-1-one]
0.0267 µM | 0.21 | 0.37 | – | – | CCCN1Cc2nc3c(-c4cccnc4F)cccc3c(N)c2C1=O [Example 13, 9-Amino-5-(2-fluoropyridin-3-yl)-2-propyl-2,3-dihydropyrrolo[3,4-b]quinolin-1-one]
0.0155 µM | 0.22 | 0.37 | – | – | COc1ccc(C)cc1-c1cccc2c(N)c3c(nc12)CN(Cc1ccc2c(c1)OCO2)C3=O [Example 14, 9-Amino-2-benzo[1,3]dioxol-5-ylmethyl-5-(2-methoxy-5-methylphenyl)-2,3-dihydropyrrolo[3,4-b]quinolin-1-one]
0.00706 µM | 0.29 | 0.87 | – | – | CCCN1Cc2nc3c(-c4ccc(C)nc4Cl)cccc3c(N)c2C1=O [Example 15, 9-Amino-5-(2-chloro-6-methylpyridin-3-yl)-2-propyl-2,3-dihydropyrrolo[3,4-b]quinolin-1-one]
0.00436 µM | −0.11 | 0.15 | – | – | CCN1Cc2nc3c(-c4c(F)cccc4OC)cccc3c(N)c2C1=O [Example 17, 9-Amino-2-ethyl-5-(2-fluoro-6-methoxyphenyl)-2,3-dihydropyrrolo[3,4-b]quinolin-1-one]
0.00162 µM | – | – | −0.07 | 0.2 | COc1cccc(F)c1-c1cccc2c(N)c3c(nc12)CN(C1CCC1)C3=O [Example 18, 9-Amino-2-cyclobutyl-5-(2-fluoro-6-methoxyphenyl)-2,3-dihydropyrrolo[3,4-b]quinolin-1-one]
0.0242 µM | 0.022 | 0.28 | – | – | CCN1Cc2nc3c(-c4cccnc4OC)cccc3c(N)c2C1=O [Example 19, 9-Amino-2-ethyl-5-(2-methoxypyridin-3-yl)-2,3-dihydropyrrolo[3,4-b]quinolin-1-one]
0.0188 µM | 0.046 | 0.26 | – | – | COc1cccc(F)c1-c1cccc2c(N)c3c(nc12)CN(C)C3=O [Example 20, 9-Amino-5-(2-fluoro-6-methoxyphenyl)-2-methyl-2,3-dihydropyrrolo[3,4-b]quinolin-1-one]
0.0182 µM | 0.07 | 0.14 | – | – | COc1cccc(-c2cccc3c(N)c4c(nc23)CN(C2CC2)C4=O)c1F [Example 22, 9-Amino-2-cyclopropyl-5-(2-fluoro-3-methoxyphenyl)-2,3-dihydropyrrolo[3,4-b]quinolin-1-one]
0.00436 µM | 0.11 | 0.34 | – | – | COc1ccc(CN2Cc3nc4c(-c5ccc(C)nc5Cl)cccc4c(N)c3C2=O)cc1OC [Example 23, 9-Amino-5-(2-chloro-6-methylpyridin-3-yl)-2-(3,4-dimethoxybenzyl)-2,3-dihydropyrrolo[3,4-b]quinolin-1-one]
0.0141 µM | −0.11 | 0.17 | – | – | CCN1Cc2nc3c(-c4ccccc4C#N)cccc3c(N)c2C1=O [Example 25, 2-(9-Amino-2-ethyl-1-oxo-2,3-dihydro-1H-pyrrolo[3,4-b]quinolin-5-yl)-benzonitrile]
0.00896 µM | 0.062 | 0.18 | – | – | CCN1Cc2nc3c(-c4ccc(OC)nc4OC)c(F)ccc3c(N)c2C1=O [Example 26, 9-Amino-5-(2,6-dimethoxypyridin-3-yl)-2-ethyl-6-fluoro-2,3-dihydropyrrolo[3,4-b]quinolin-1-one]
0.0214 µM | 0.07 | 0.19 | – | – | CCN1Cc2nc3c(-c4ccc(OC)c(OC)c4)cccc3c(N)c2C1=O [Example 29, 9-Amino-2-ethyl-5-(3,4-dimethoxyphenyl)-2,3-dihydropyrrolo[3,4-b]quinolin-1-one]
0.0221 µM | −0.05 | 0.2 | – | – | CCN1Cc2nc3c(-c4ccc(F)cc4OC)cccc3c(N)c2C1=O [Example 32, 9-Amino-2-ethyl-5-(4-fluoro-2-methoxyphenyl)-2,3-dihydropyrrolo[3,4-b]quinolin-1-one]
0.00993 µM | 0.01 | 0.21 | – | – | CCN1Cc2nc3c(-c4cccc(OC)c4F)cccc3c(N)c2C1=O [Example 33, 9-Amino-2-ethyl-5-(2-fluoro-3-methoxyphenyl)-2,3-dihydropyrrolo[3,4-b]quinolin-1-one]
0.00259 µM | −0.075 | 0.24 | – | – | COc1cccc(F)c1-c1c(F)ccc2c(N)c3c(nc12)CN(C1CC1)C3=O [Example 35, 9-Amino-2-cyclopropyl-6-fluoro-5-(2-fluoro-6-methoxyphenyl)-2,3-dihydropyrrolo[3,4-b]quinolin-1-one]

Compound | Ki [1] | Relative Potentiation for GABAA1 (GABAA receptor α1β2γ2) | Relative Potentiation for GABAA2 (GABAA receptor α2β3γ2) | Relative Potentiation for GABAA1 (GABAA receptor α1β2γ2; [2]) | Relative Potentiation for GABAA2 (GABAA receptor α2β3γ2; [2])
CCCN1Cc2nc3c(-c4ccc(OC)nc4OC)c(F)ccc3c(N)c2C1=O [Example 24, 9-Amino-5-(2,6-dimethoxypyridin-3-yl)-6-fluoro-2-propyl-2,3-dihydropyrrolo[3,4-b]quinolin-1-one] | 0.00294 µM | 0.15 | 0.35 | – | –
